Tests used:
[1] = target: T1, Type-1 angiotensin II receptor (Homo sapiens) (UniProt P30556); assay: (§1) Antagonist activity at human AT1 receptor expressed in CHO cells assessed as reduction in angiotensin 2-induced inositol phosphate accumulation by measuring dissociation rate constant preincubated with cells followed by compound washout and subsequent addition of angiotensin 2 for 5 mins; format: functional, cell-based
T1 sequence (whole entry): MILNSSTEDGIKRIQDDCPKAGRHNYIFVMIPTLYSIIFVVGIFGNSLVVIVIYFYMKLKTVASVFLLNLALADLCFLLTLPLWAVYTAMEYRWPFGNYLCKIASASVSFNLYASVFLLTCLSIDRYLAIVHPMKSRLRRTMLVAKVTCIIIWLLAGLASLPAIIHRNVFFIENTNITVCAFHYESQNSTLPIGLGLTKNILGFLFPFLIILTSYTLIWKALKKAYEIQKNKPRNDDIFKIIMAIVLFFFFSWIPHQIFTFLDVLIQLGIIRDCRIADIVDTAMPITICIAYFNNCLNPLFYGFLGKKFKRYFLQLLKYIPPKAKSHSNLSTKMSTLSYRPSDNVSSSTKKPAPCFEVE

[2] = target: T1, Type-1 angiotensin II receptor (Homo sapiens); assay: (§2) Antagonist activity at human AT1 receptor expressed in CHO cells assessed as reduction in angiotensin 2-induced inositol phosphate accumulation by measuring residence time constant preincubated with cells followed by compound washout and subsequent addition of angiotensin 2 for 5 mins; format: functional, cell-based
[3] = target: T1, Type-1 angiotensin II receptor (Homo sapiens); assay: Binding affinity to human AT1 receptor expressed in CHO cells assessed as residence time at 1.5 nM incubated for 60 mins followed by compound washout; format: cell-based
[4] = target: T1, Type-1 angiotensin II receptor (Homo sapiens); assay: Binding affinity to human AT1 receptor expressed in CHO cells assessed as dissociation rate constant at 1.5 nM incubated for 60 mins followed by compound washout; format: cell-based
[5] = target: T1, Type-1 angiotensin II receptor (Homo sapiens); assay: Binding affinity to human AT1 receptor expressed in CHO cells assessed as dissociation rate constant at 1.5 nM incubated for 60 mins followed by compound washout in presence of losartan; format: cell-based
[6] = target: T1, Type-1 angiotensin II receptor (Homo sapiens); assay: Binding affinity to human AT1 receptor expressed in CHO cells assessed as dissociation rate constant at 1.5 nM incubated for 60 mins measured after isotopic dilution; format: cell-based
[7] = target: T1, Type-1 angiotensin II receptor (Homo sapiens); assay: Binding affinity to human AT1 receptor expressed in CHO cells assessed as residence time at 1.5 nM incubated for 60 mins followed by compound washout in presence of losartan; format: cell-based
[8] = target: T1, Type-1 angiotensin II receptor (Homo sapiens); assay: Displacement of [3H]-candesartan from human AT1 receptor expressed in CHO cells assessed as dissociation rate constant at 1.5 nM pre-incubated with cells followed by compound washout and subsequent addition of [3H]-candesartan up to 60 mins; format: cell-based
[9] = target: T1, Type-1 angiotensin II receptor (Homo sapiens); assay: Binding affinity to human AT1 receptor expressed in CHO cells assessed as residence time at 1.5 nM incubated for 60 mins measured after isotopic dilution; format: cell-based
[10] = target: T1, Type-1 angiotensin II receptor (Homo sapiens); assay: as §1, with “washout in presence of losartan” for “washout”; format: functional, cell-based
[11] = target: T1, Type-1 angiotensin II receptor (Homo sapiens); assay: as §2, with “washout in presence of losartan” for “washout”; format: functional, cell-based
[12] = target: T1, Type-1 angiotensin II receptor (Homo sapiens); assay: Displacement of [3H]-candesartan from human AT1 receptor expressed in CHO cells assessed as residence time at 1.5 nM pre-incubated with cells followed by compound washout and subsequent addition of [3H]-candesartan up to 60 mins; format: cell-based
[13] = target: T1, Type-1 angiotensin II receptor (Homo sapiens); assay: Binding affinity to human AT1 receptor expressed in CHO cells assessed as dissociation rate constant at 3 nM incubated for 60 mins measured after isotopic dilution; format: cell-based
[14] = target: T1, Type-1 angiotensin II receptor (Homo sapiens); assay: Binding affinity to human AT1 receptor expressed in CHO cells assessed as residence time at 3 nM incubated for 60 mins followed by compound washout; format: cell-based
[15] = target: T1, Type-1 angiotensin II receptor (Homo sapiens); assay: Displacement of [3H]-candesartan from human AT1 receptor expressed in CHO cells assessed as dissociation rate constant at 100 nM pre-incubated with cells followed by compound washout and subsequent addition of [3H]-candesartan up to 60 mins; format: cell-based
[16] = target: T1, Type-1 angiotensin II receptor (Homo sapiens); assay: Binding affinity to human AT1 receptor expressed in CHO cells assessed as residence time at 3 nM incubated for 60 mins followed by compound washout in presence of losartan; format: cell-based
[17] = target: T1, Type-1 angiotensin II receptor (Homo sapiens); assay: Binding affinity to human AT1 receptor expressed in CHO cells assessed as dissociation rate constant at 3 nM incubated for 60 mins followed by compound washout; format: cell-based
[18] = target: T1, Type-1 angiotensin II receptor (Homo sapiens); assay: Binding affinity to human AT1 receptor expressed in CHO cells assessed as dissociation rate constant at 3 nM incubated for 60 mins followed by compound washout in presence of losartan; format: cell-based
[19] = target: T1, Type-1 angiotensin II receptor (Homo sapiens); assay: Displacement of [3H]-candesartan from human AT1 receptor expressed in CHO cells assessed as residence time at 100 nM pre-incubated with cells followed by compound washout and subsequent addition of [3H]-candesartan up to 60 mins; format: cell-based
[20] = target: T1, Type-1 angiotensin II receptor (Homo sapiens); assay: Binding affinity to human AT1 receptor expressed in CHO cells assessed as residence time at 3 nM incubated for 60 mins measured after isotopic dilution; format: cell-based

K [1] [min⁻¹] | TIME [2] [h] | TIME [3] [h] | K [4] [min⁻¹] | K [5] [min⁻¹] | K [6] [min⁻¹] | TIME [7] [h] | K [8] [min⁻¹] | TIME [9] [h] | K [10] [min⁻¹] | TIME [11] [h] | TIME [12] [h] | K [13] [min⁻¹] | TIME [14] [h] | K [15] [min⁻¹] | TIME [16] [h] | K [17] [min⁻¹] | K [18] [min⁻¹] | TIME [19] [h] | TIME [20] [h] | SMILES
0.002 | 7.57 | 16.6 | 0.001 | 0.005 | 0.006 | 3.62 | 0.004 | 2.7 | 0.003 | 4.45 | 3.65 | – | – | – | – | – | – | – | – | CCOc1nc2cccc(C(=O)O)c2n1Cc1ccc(-c2ccccc2-c2nnn[nH]2)cc1
– | – | 0.6 | 0.028 | 0.049 | 0.041 | 0.333 | – | 0.417 | – | – | – | – | – | – | – | – | – | – | – | CCCCC(=O)N(Cc1ccc(-c2ccccc2-c2nn[nH]n2)cc1)[C@@H](C(=O)O)C(C)C
0.016 | 1.05 | – | – | – | – | – | – | – | 0.021 | 0.8 | – | – | – | – | – | – | – | – | – | CCCCc1nc(Cl)c(C(=O)O)n1Cc1ccc(-c2ccccc2-c2nn[nH]n2)cc1
0.039 | 0.433 | – | – | – | – | – | – | – | 0.058 | 0.283 | – | 0.104 | 0.15 | 0.04 | 0.15 | 0.128 | 0.101 | 0.417 | 0.167 | CCCCC1=NC2(CCCC2)C(=O)N1Cc1ccc(-c2ccccc2-c2nnn[nH]2)cc1
